# Assay results taken from ChEMBL document CHEMBL1154813, “Asymmetric synthesis of anticancer beta-lactams via Staudinger reaction: utilization of chiral ketene from carbohydrate” (2010).
# Key:
# Assay type in all cases: functional
# [1] = tested on: K562; test: Cytotoxicity against human K562 cells by MTT assay
# [2] = tested on: PC-3; test: Cytotoxicity against human PC3 cells by MTT assay
# [3] = tested on: HT-29; test: Cytotoxicity against human HT-29 cells by MTT assay
# [4] = Cytotoxicity against human BRO cells by MTT assay
# [5] = tested on: MDA-MB-231; test: Cytotoxicity against human MDA-MB-231 cells by MTT assay
# [6] = tested on: HL-60; test: Cytotoxicity against human HL60 cells by MTT assay
# [7] = tested on: SK-OV-3; test: Cytotoxicity against human SKOV3 cells by MTT assay
smiles,measurement,setting,value
CC(=O)O[C@@H]1C(=O)N(c2cc3c4ccccc4ccc3c3ccccc23)[C@H]1c1ccccc1,INH,[1],1.1 µM
same,INH,[2],1.4 µM
same,INH,[3],0.7 µM
same,INH,[4],6.1 µM
same,INH,[5],0.8 µM
same,INH,[6],0.7 µM
same,INH,[7],6.8 µM
CC(=O)O[C@H]1C(=O)N(c2cc3c4ccccc4ccc3c3ccccc23)[C@@H]1c1ccccc1,INH,[1],6 µM
same,INH,[2],15.5 µM
same,INH,[3],8.3 µM
same,INH,[4],22 µM
same,INH,[5],8.5 µM
same,INH,[6],5.4 µM
same,INH,[7],6.1 µM
CC(=O)O[C@H]1C(=O)N(c2cc3c4ccccc4ccc3c3ccccc23)[C@@H]1c1ccccc1 (racemic),INH,[1],1.1 µM
same,INH,[2],11.1 µM
same,INH,[3],2 µM
same,INH,[4],15.7 µM
same,INH,[5],8.7 µM
same,INH,[6],0.7 µM
same,INH,[7],8.9 µM
